Assay results taken from BigSolDB 2.1.

CC(=NC#N)N(C)Cc1ccc(Cl)nc1
solubility (mole fraction)
Details	278.15 K	283.15 K	288.15 K	293.15 K	298.15 K	303.15 K	308.15 K	313.15 K	318.15 K
in 1,4-dioxane	–	–	0.0693	0.0799	0.0941	0.113	0.132	0.153	0.175
in DMF	0.175	0.201	0.229	0.269	0.318	0.368	0.421	0.477	0.542
in DMSO	–	–	–	0.376	0.426	0.481	0.54	0.608	0.68
in NMP	0.197	0.221	0.255	0.299	0.352	0.405	0.46	0.523	0.589
in acetone	0.104	0.118	0.138	0.162	0.191	0.226	0.264	0.303	0.346
in ethanol	0.0162	0.0192	0.0232	0.0284	0.0328	0.0382	0.0448	0.05	0.0572
in ethyl acetate	0.0106	0.0128	0.0155	0.019	0.0233	0.0281	0.0332	0.039	0.0448
in ethylene glycol	0.00978	0.0106	0.0134	0.0163	0.0194	0.023	0.0269	0.0313	0.0367
in isobutanol	0.0028	0.00315	0.0037	0.00452	0.00519	0.00613	0.00696	0.00821	0.00932
in isopropanol	0.0067	0.00763	0.00886	0.0108	0.0127	0.0147	0.0166	0.0195	0.0221
in methanol	0.0199	0.0227	0.0273	0.0325	0.0382	0.0452	0.0532	0.0619	0.0703
in n-butanol	0.00149	0.00165	0.00202	0.00242	0.00284	0.00337	0.00378	0.00447	0.00507
in water	0.000146	0.000173	0.000213	0.000269	0.000348	0.00045	0.000572	0.000721	0.000911
